# Test results published in patent publication US4474945A, “Anthracycline antibiotics” (priority 1981, dated 1984).
# Where two headings read alike, the source gives them in different places.
# Key:
# L1210 leukemia = assay: Therapeutic effect (survival prolongation) on CDF1 mice bearing L1210 leukemia; format: in vivo, mouse (CDF1 mice); conditions: for Survival prolongation rate (T/C %): L1210-bearing CDF1 mice, i.p. every day for 10 days, control = 100; for survival prolongation effect (in words): mice transplanted with leukemia cells
# Method: The therapeutic effect of 2-hydroxyaclacinomycin B was studied on CDF1 mice bearing L1210 leukemia. From 24 hours after 1×10^5 L1210 cells/animal were intraperitoneally transplanted to CDF1 mice, 2-hydroxyaclacinomycin B was intraperitoneally given everyday for 10 days. The prolongation of the survival time was calculated relative to the control animals receiving physiological saline as 100. Table 1 compares the in vitro and in vivo activities and toxicities of 2-hydroxyaclacinomycins A, B, and N and aclacinomycin A.
# Mice = assay: Acute toxicity, mice, i.p.
# [1] = test system: mouse leukemia cells L1210; assay: Growth inhibition of cultured L1210 cells; format: cell-based; conditions: for IC50: Mus musculus; for inhibition of growth and nucleic acid synthesis of L1210 cells (in words): mouse leukemia cells L1210
# Method: For determination of the 50% growth inhibition concentration (IC50), 5×10^4 L1210 cells/ml (final concentration) were inoculated into RPMI 1640 medium (Rosewell Park Memorial Institutes 1640 medium) containing 20% calf serum. The anthracycline compounds of the present invention were added to give a final concentrations from 0.01 μg/ml to 0.25 μg/ml, while the control contained no drug. After incubation at 37° C. in a carbon dioxide incubator, the cell counts of the test and control cultures were measured for calculation of the IC50 concentration of antibiotic.
# [2] = test system: RNA synthesis in L1210 cells; assay: RNA synthesis inhibition in cultured L1210 cells (14C-uridine incorporation); format: cell-based, mouse; conditions: for IC50: Mus musculus, 1 h, cultured L1210 cells, 14C-uridine, 60 minutes, 10% calf serum, 37° C., read-out: 50% Inhibition concentration (IC50), RNA synthesis inhibition
# Method: (§1) Fifteen minutes after the anthracycline compounds of the present invention were added at varied concentrations, 0.05 μCi/ml (final concentration) of ^14 C-uridine or ^14 C-thymidine was added and cultivated at 37° C. for a further 60 minutes. The incorporation of the radioactive base was stopped by addition of 10% trichloroacetic acid. The acid-insoluble matters were recovered; washed three times with 10-5% trichloroacetic acid; and dissolved in formic acid.
# [3] = test system: DNA synthesis in L1210 cells; assay: DNA synthesis inhibition in cultured L1210 cells (14C-thymidine incorporation); format: cell-based; conditions: Mus musculus, 1 h, 60 minutes, 10% calf serum, 37° C., read-out: 50% Inhibition concentration (IC50), DNA synthesis inhibition
# Method: as §1
# [4] = cited from earlier work
# [5] = compared with aclacinomycin A; European Publication No. 30255; cited from earlier work
# [6] = cultured L1210 cells, RPMI 1640 with 20% calf serum, 37° C., read-out: 50% Inhibition concentration (IC50), growth inhibition
Compound,Survival prolongation rate (T/C %) (L1210 leukemia; dose 0.63 mg/kg),Survival prolongation rate (T/C %) (L1210 leukemia; dose 1.25 mg/kg),Survival prolongation rate (T/C %) (L1210 leukemia; dose 2.5 mg/kg),Survival prolongation rate (T/C %) (L1210 leukemia; dose 5 mg/kg),Survival prolongation rate (T/C %) (L1210 leukemia; dose 7.5 mg/kg),Survival prolongation rate (T/C %) (L1210 leukemia; dose 10 mg/kg),Survival prolongation rate (T/C %) (L1210 leukemia; dose 12 mg/kg),survival prolongation effect (in words) (L1210 leukemia),"antitumor activity (in words) (L1210 leukemia; mouse, in vivo)",Toxicity (acute) (Mice),killing of mouse leukemia cells L1210 (in words) [1],"IC50 ([1]; L1210, read-out: 50% Inhibition concentration (IC50), growth inhibition)",inhibition of growth and nucleic acid synthesis of L1210 cells (in words) [1],IC50 [2],RNA synthesis versus DNA synthesis inhibition (in words) [2],IC50 [3],"IC50 [1, 6]",toxicity and cardio-toxicity among hitherto-developed anthracycline antibiotics (in words) ([4]; compared with hitherto-developed anthracycline antibiotics),"cardio-toxicity (in words) ([4]; compared with aclacinomycin A, European Publication No. 30255)",antitumor activity (in words) [5]
"CCC1(O)CC(OC2CC(N(C)C)C(OC3CC4OC5CC(=O)C(C)OC5OC4C(C)O3)C(C)O2)c2c(cc3c(c2O)C(=O)c2c(O)cc(O)cc2C3=O)C1C(=O)OC (centres unmarked) [2-Hydroxyaclacinomycin B, 2-hydroxyaclacinomycin B]",110%,131%,153%,200%,226%,139%,113%,excellent survival prolongation effect,marked antitumor activity,50.0,kill mouse leukemia cells L1210 at a low concentration,0.03 µg/mL,markedly inhibit the growth and the nucleic acid synthesis,0.22 µg/mL,inhibit RNA synthesis more specifically than DNA synthesis,1 µg/mL,,,,
"CCC1(O)CC(OC2CC(N(C)C)C(OC3CC(O)C(OC4CCC(O)C(C)O4)C(C)O3)C(C)O2)c2c(cc3c(c2O)C(=O)c2c(O)cc(O)cc2C3=O)C1C(=O)OC (centres unmarked) [2-Hydroxyaclacinomycin N, 2-hydroxyaclacinomycin N]",109%,128%,148%,202%,219%,144%,108%,excellent survival prolongation effect,,45.7,kill mouse leukemia cells L1210 at a low concentration,,markedly inhibit the growth and the nucleic acid synthesis,0.18 µg/mL,inhibit RNA synthesis more specifically than DNA synthesis,1.18 µg/mL,0.04 µg/mL,,,
"CCC1(O)CC(OC2CC(N(C)C)C(OC3CC(O)C(OC4CCC(=O)C(C)O4)C(C)O3)C(C)O2)c2c(cc3c(c2O)C(=O)c2c(O)cccc2C3=O)C1C(=O)OC (centres unmarked) [Aclacinomycin A, reference compound]",107%,125%,186%,196%,123%,Toxic,,,,22.6,,,,0.04 µg/mL,,0.3 µg/mL,0.01 µg/mL,the least toxic and cardio-toxic among the hitherto-developed anthracycline antibiotics,,
CCC1(O)CC(OC2CC(N(C)C)C(OC3CC(O)C(OC4CCC(=O)C(C)O4)C(C)O3)C(C)O2)c2c(cc3c(c2O)C(=O)c2c(O)cc(O)cc2C3=O)C1C(=O)OC (centres unmarked) [2-Hydroxyaclacinomycin A],124%,148%,176%,218%,220%,158%,120%,excellent survival prolongation effect,,50.0,kill mouse leukemia cells L1210 at a low concentration,,markedly inhibit the growth and the nucleic acid synthesis,0.14 µg/mL,inhibit RNA synthesis more specifically than DNA synthesis,0.85 µg/mL,0.04 µg/mL,,"less cardio-toxic, than aclacinomycin A",stronger antitumor activity
